Several values for one entry are separate records, joined by “and”; a condition that tells them apart may be missing. Equal values may be shown once.
System: CAIX-expressing SK-RC-52 ccRCC tumor xenografts
Assay: Biodistribution of [Al18F]XYIMSR-04 in mice bearing SK-RC-52 xenografts
Format: in vivo
Settings: 1 h
Protocol: The resulting Mice bearing SK-RC-52 xenografts within the solution was heated at 110 °C for 30 min. 0.6 mg of lower left flank were injected intravenously with 740 [Al19F]XYIMSR-04 was obtained as white crystal, after kBq (20 μCi) of [Al18F]XYIMSR-04 in 200 μL of PBS.
HPLC purification. Yield is 61 %. HPLC condition: At specific 1 hour time point mentioned in the paper, column Phenomenex, Luna 10 x 250 mm, 10 µ. 20/80/ mice (n = 5) were sacrificed by cervical dislocation and TFA MeCN/H O/TFA, flow 4 mL/min. Product was the blood was immediately collected by cardiac puncture. […]
eluded at 35.5 min. MS, calculated for C H AlFN N Heart, lungs, pancreas, spleen, fat, brain, muscle, small […]
aO S [M+Na] : 1426.4759; Found: 1426.4777. intestines, liver, bone, stomach, kidney, urinary bladder, […]
and tumor were collected. Each organ was weighed and Radiosynthesis the tissue radioactivity was measured with an automated gamma counter (1282 Compugamma CS, Pharmacia/
For convenience, Na18F in saline purchased from LKBNuclear, Inc., Mt. Waverly, Vic. Australia). The PETNET (Hackensack, NJ) was directly applied with to percentage of injected dose per gram of tissue (% ID/g) the synthesis with a slightly modified protocol (2). Due to was calculated by comparison with samples of a standard […]
reaction condition. corrected for radioactive decay.
Radiosynthesis of [Al18F]XYIMSR-04. 400μg of Data were expressed as mean ± standard deviation XYIMSR-04 in 200 μL water/Ethanol 1:1 was added to (SD). Prism software (GraphPAD, San Diego, California) 1 mL of Na18F in 0.9% saline containing 4.6-14.0 mCi was used to determine statistical significance. Statistical activity. To this mixture, 20 μL of 2 mM AlCl3/NaOAc significance was calculated using a paired t test. P-values solution and 200 μL of ethanol were added. The reaction < 0.0001 were considered significant. was kept at 105 °C for 20 min, then diluted to 2.0 mL The biodistribution data at 1 h is shown below. with water and loaded onto a preparative HPLC column The tumor uptake is 14.40%ID/g, with tumor-to –blood, for purification. Retention times for the radiolabeled -muscle and –kidney of 22.1, 9.74 and 0.28. compound, [Al18F]XYIMSR-04, and starting material, XYIMSR-04, were optimized to the point of baseline Imaging separation, with [Al18F]XYIMSR-04 eluting first.
[Al18F]XYIMSR-04 was obtained a radiochemical yield Mice harboring subcutaneous SK-RC-52 tumors of 4.3% (n=3) in specific radioactivity of 57-92 Ci/mmol with the lower left flank were injected with 7.4 MBq (200 in 1 hour. HPLC conditions: Phenomenex, Luna 10 x 250 μCi) of [Al18F]XYIMSR-04 in 250 µL of PBS (pH = 7.0) mm, 10μ. 20/80/0.1 MeCN/H2O/TFA, flow 4 mL/min. intravenously (tail vein). Anesthesia was then induced Product eluted at 35.5 min, while starting material eluted with 3% isofluorane and maintained at 2% isoflurane. […]
(also on this page, place not known: www.impactjournals.com/oncotarget/ Oncotarget, Supplementary Materials 2016 ([Al19F]XYIMSR-04). AlCl 3 2O/TFA, 57H79AlFN15N aO20S2 +: Na 18F [Al 18F]XYIMSR-04. XYIMSR-04 Na 18F AlCl 3/NaOAc [Al 18F]XYIMSR-04, [Al 18F]XYIMSR-04 MeCN/H 2O/TFA, [Al 19F]XYIMSR-04 [Al 18F]XYIMSR-04) […]

CC(CCC(=O)N[C@@H](CC(=O)N[C@@H](CC(=O)N[C@@H](CCCCn1cc(CCCC(=O)Nc2nnc(S(N)(=O)=O)s2)nn1)C(=O)NCCOCCOCCNC(=O)CN1CCN2CCN(CC1)CC(=O)[O][Al]([18F])[O]C(=O)C2)C(=O)O)C(=O)O)(c1ccc(O)cc1)c1ccc(O)cc1 [[Al^18F]XYIMSR-04] was tested, and the Bladder uptake was 20.12 ± 12.51 %ID/g, the Blood uptake was 0.65 ± 0.11 %ID/g and the Bone uptake was 1.91 ± 1.39 %ID/g. For the same molecule, the Brain uptake was 0.66 ± 0.04 %ID/g, the Fat uptake was 1.54 ± 0.25 %ID/g and the Heart uptake was 5.03 ± 0.51 %ID/g. The “Kidney (kid) uptake” value was 50.84 ± 2.65 %ID/g, the Liver uptake was 5.55 ± 0.91 %ID/g and the Lung uptake was 34.07 ± 5.85 %ID/g. The “Muscle (mm) uptake” value was 1.74 ± 0.58 %ID/g, the Pancreas uptake was 3.47 ± 0.16 %ID/g and the Sm. intestine uptake was 9.59 ± 1.04 %ID/g. It also gave a Spleen uptake of 0.54 ± 0.18 %ID/g, a Stomach uptake of 21.62 ± 1.85 %ID/g and a Tumor uptake of 14.4 ± 2.2 %ID/g. The “Tumor/kid (kidney) ratio” value was 0.28 ± 0.03, the “Tumor/mm (muscle) ratio” value was 9.7 ± 2.9 and the Tumor/Blood ratio (listed as [Al18F]XYIMSR-04) was 22.1 and 22.1 ± 1.5. For the same molecule, the “Tumor/kid (kidney) ratio” value (listed as [Al18F]XYIMSR-04) was 0.28 and the “Tumor/mm (muscle) ratio” value (listed as [Al18F]XYIMSR-04) was 9.74.

Reference: article PMC5302928, “[^64Cu]XYIMSR-06: A dual-motif CAIX ligand for PET imaging of clear cell renal cell carcinoma” (Oncotarget, 2016)
